Assay results published in US20250375468A1, “NOVEL RAS INHIBITORS” (KHR Biotec GmbH, priority 2022, published 2025).

Key:
Experiment in all cases: NanoBit assay for RAS activation (RAS-LgBiT / CRAF RBD-SmBiT)
Format in all cases: cell-based
[1] = target: T1, HRAS G12V (Homo sapiens, UniProt P01112, G12V); settings: HRAS G12V with CRAF RBD, 2 h incubation with inhibitor, serum free DMEM
T1 construct: K, N and HRAS G12V (full length) was cloned with Xho I and Bgl Il to LgBit; expressed in transfected cells
Protocol: (§1) FIGS. 1a) and 1b): NanoBit assay for RAS activation (KRAS G12V, NRAS G12V, HRAS G12V)
(§2) N-terminal LgBiT and C-terminal SmBIT construct was purchased from Promega and K, N and HRAS G12V (full length) was cloned with Xho I and Bgl Il to LgBit and CRAF Ras binding domain (1-149) was cloned with EcoRI and Bgl Il to SmBit. For transfections, 1 μg or 2 μg of (12 well/6 well) plasmids were transfected into cells with 0.5 mM of PEI reagent in 100 μl or 200 μl PBS. One day after transfection, cells were harvested and seeded into 96 well white plates, half area (Greiner). After an additional day the medium was changed to serum free DMEM and the cells were incubated for 2 h with inhibitors. NanoGlo assay was performed according to the manufacturer's instructions. The luminescence was measured using Tecan infinite (Tecan).

[2] = target: T2, KRAS G12V (Homo sapiens, UniProt P01116, G12V); settings: KRAS G12V with CRAF RBD, 2 h incubation with inhibitor, serum free DMEM
T2 construct: K, N and HRAS G12V (full length) was cloned with Xho I and Bgl Il to LgBit; expressed in transfected cells
Protocol: as §1, §2

[3] = target: T3, NRAS G12V (Homo sapiens, UniProt P01111, G12V); settings: NRAS G12V with CRAF RBD, 2 h incubation with inhibitor, serum free DMEM
T3 construct: K, N and HRAS G12V (full length) was cloned with Xho I and Bgl Il to LgBit; expressed in transfected cells
T3 sequence (P01111 whole entry G12V): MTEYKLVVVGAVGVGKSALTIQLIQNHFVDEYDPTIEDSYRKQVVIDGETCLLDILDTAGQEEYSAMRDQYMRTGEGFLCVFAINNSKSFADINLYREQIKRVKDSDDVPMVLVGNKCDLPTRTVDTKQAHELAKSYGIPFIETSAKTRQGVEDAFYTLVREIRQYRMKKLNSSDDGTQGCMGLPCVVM
Protocol: as §1, §2

CC[PH](CC)(CC)[Au][S][C@@H]1O[C@H](COC(C)=O)[C@@H](OC(C)=O)[C@H](OC(C)=O)[C@H]1OC(C)=O [Auranofin, (2,3,4,6-Tetra-O-acetyl-1-thio-β-D-glucopyranosato)(triethylphosphan)gold]
inhibits: RAS activation (NanoBit luminescence), H-RAS [1] | RAS activation (NanoBit luminescence), K-RAS [2] | RAS activation (NanoBit luminescence), N-RAS [3]
